Reference: patent US9416126B2, “Compounds inhibiting leucine-rich repeat kinase enzyme activity” (Merck Sharp & Dohme Corp., priority 2013, dated 2016)

Molecular target: LRRK2(G2019S mutation, GST-LRRK2(amino acids 970-2527)) (Homo sapiens (Human), UniProt Q5S007, G2019S)
Test: LRRK2 Km ATP LanthaScreen Assay
Format: biochemical
Conditions: Km ATP (184 μM ATP solution), G2019S LRRK2, mean IC50
Method: Unless otherwise noted, all LRRK2 IC50 data presented in tables refers to the LRRK2 Km ATP LanthaScreen™ Assay that is described in the Biological Assay section.
The data presented for the 5 mM and Km ATP LanthaScreen™ Assay represents mean IC50 values based on several test results and may have reasonable. deviations depending on the specific conditions and reagents used. Reagents for the LRRK2 5 mM and Km ATP LanthaScreen™ Assay were purchased from Life Technologies Corporation.
LRRK2 Km ATP LanthaScreen™ Assay
a) 400 nl of a 1:2.15 serial dilution of test compound(98 μM top assay concentration) is spotted via Labcyte Echo to certain wells in a 384 well black, untreated plate. Control wells contain 400 nl of either DMSO or 400 nl of a known inhibitor in DMSO.
b) 10 μl of a 2.5 nM LRRK2(G2019S mutation, GST-LRRK2(amino acids 970-2527)) enzyme solution in 1× assay buffer(50 mM Tris pH 8.5, 10 mM MgCl2, 0.01% Brij-35, 1 mM EGTA, 2 mM DTT, 0.05 mM NaVO4) is added to all wells.
c) A 30 minute room temperature incubation is followed by addition of 10 μl of 800 nM fluorescein labeled LRRKtide peptide substrate and 184 μM ATP solution in 1× assay buffer to all wells.
d) After a 60 minute room temperature incubation, 20 μl of TR-FRET Dilution Buffer(Invitrogen PV3756B) containing 4 nM Tb-labeled anti-phospho LRRKtide antibody and 20 mM EDTA is added to all wells.
e) Plates are incubated at room temperature for 1 hour and read on an Envision™ multi-mode plate reader with LanthaScreen™ settings. Results are analysed using Assay Data Analyzer.

Chain of LRRK2(G2019S mutation, GST-LRRK2(amino acids 970-2527)) (Q5S007 970-2527 G2019S): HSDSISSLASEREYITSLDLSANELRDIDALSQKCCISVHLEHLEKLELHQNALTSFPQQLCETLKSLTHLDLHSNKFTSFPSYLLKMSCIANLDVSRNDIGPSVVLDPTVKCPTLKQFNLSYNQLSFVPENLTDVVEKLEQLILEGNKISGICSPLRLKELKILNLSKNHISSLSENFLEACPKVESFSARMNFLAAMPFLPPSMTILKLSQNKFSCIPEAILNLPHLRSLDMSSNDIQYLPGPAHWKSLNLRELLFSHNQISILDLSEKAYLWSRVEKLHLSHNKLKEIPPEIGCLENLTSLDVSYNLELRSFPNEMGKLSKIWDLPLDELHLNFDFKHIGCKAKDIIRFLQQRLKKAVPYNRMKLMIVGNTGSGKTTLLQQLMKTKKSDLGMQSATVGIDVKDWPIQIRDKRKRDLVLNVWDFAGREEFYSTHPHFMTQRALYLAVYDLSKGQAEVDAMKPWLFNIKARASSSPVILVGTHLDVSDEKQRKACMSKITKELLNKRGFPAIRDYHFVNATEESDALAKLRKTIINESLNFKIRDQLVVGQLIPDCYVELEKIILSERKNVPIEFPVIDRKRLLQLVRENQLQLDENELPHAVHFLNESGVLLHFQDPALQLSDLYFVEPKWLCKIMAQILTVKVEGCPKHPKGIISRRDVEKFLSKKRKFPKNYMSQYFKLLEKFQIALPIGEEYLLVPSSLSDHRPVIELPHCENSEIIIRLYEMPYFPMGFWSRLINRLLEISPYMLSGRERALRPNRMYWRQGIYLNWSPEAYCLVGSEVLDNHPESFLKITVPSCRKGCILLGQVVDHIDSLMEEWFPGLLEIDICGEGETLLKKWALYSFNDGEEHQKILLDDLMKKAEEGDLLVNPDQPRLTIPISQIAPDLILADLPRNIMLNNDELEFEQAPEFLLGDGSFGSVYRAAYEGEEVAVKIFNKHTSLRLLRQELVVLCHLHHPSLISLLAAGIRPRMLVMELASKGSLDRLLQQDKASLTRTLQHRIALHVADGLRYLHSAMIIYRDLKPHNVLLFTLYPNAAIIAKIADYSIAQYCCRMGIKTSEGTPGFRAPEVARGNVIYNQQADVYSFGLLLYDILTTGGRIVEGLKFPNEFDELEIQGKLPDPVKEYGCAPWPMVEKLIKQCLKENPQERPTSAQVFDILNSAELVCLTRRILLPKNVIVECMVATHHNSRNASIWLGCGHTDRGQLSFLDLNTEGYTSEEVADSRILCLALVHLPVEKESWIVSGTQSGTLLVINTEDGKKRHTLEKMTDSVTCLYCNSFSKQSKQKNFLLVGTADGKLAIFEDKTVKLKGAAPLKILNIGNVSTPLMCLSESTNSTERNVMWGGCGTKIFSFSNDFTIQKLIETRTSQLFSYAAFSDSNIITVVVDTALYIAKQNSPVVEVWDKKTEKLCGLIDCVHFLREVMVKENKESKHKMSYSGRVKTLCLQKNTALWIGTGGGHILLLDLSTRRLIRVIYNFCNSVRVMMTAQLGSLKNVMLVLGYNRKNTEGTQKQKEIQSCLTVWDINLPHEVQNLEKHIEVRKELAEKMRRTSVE

Row | Structure (SMILES) | IC50
1 | CC(C)Oc1ccc2[nH]nc(-c3cc(N4CCN(CCO)CC4)ncn3)c2c1 [Example J2] | 7.4 nM
2 | CC(C)Oc1ccc2[nH]nc(-c3cc(N4CCCCC4)ncn3)c2c1 [Example J3] | 10.6 nM
3 | CC(C)Oc1ccc2[nH]nc(-c3cc(N4CCC4)ncn3)c2c1 [Example J4] | 7.9 nM
4 | CC(C)Oc1ccc2[nH]nc(-c3cc(N4CCCC4)ncn3)c2c1 [Example J5] | 13.9 nM
5 | CC(C)Oc1ccc2[nH]nc(-c3cc(N4C[C@@H](C)O[C@@H](C)C4)ncn3)c2c1 [Example J6] | 7.8 nM
6 | CC(C)Oc1ccc2[nH]nc(-c3cc(N4C[C@H](O)[C@@H](N(C)C)C4)ncn3)c2c1 [Example J7] | 15.3 nM
7 | CO[C@H]1CN(c2cc(-c3n[nH]c4ccc(OC(C)C)cc34)ncn2)C[C@@H]1O [Example J8] | 18.6 nM
8 | CC(C)Oc1ccc2[nH]nc(-c3cc(N4CCO[C@H](C)C4)ncn3)c2c1 [Example J9] | 9.2 nM
9 | CC(C)Oc1ccc2[nH]nc(-c3cc(N4C[C@H](F)[C@@H](F)C4)ncn3)c2c1 [Example J10] | 11.1 nM
10 | CC(C)Oc1ccc2[nH]nc(-c3cc(N4CCCN(S(C)(=O)=O)CC4)ncn3)c2c1 [Example J11] | 51.3 nM
11 | CC(C)Oc1ccc2[nH]nc(-c3cc(N4CC(n5cccn5)C4)ncn3)c2c1 [Example J12] | 22.6 nM
12 | CC(C)Oc1ccc2[nH]nc(-c3cc(N4CC[S+]([O-])CC4)ncn3)c2c1 [Example J13] | 21 nM
13 | CC(C)Oc1ccc2[nH]nc(-c3cc(N4CCc5oc(C6CC6)nc5C4)ncn3)c2c1 [Example J14] | 30.1 nM
14 | CC(C)Oc1ccc2[nH]nc(-c3cc(N4CCC(F)(F)CC4)ncn3)c2c1 [Example J15] | 20.2 nM
15 | CC(C)Oc1ccc2[nH]nc(-c3cc(N4CC(S(C)(=O)=O)C4)ncn3)c2c1 [Example J16] | 13.3 nM
16 | CC(C)Oc1ccc2[nH]nc(-c3cc(N4CCN(C)CC4)ncn3)c2c1 [Example J17] | 5.4 nM
17 | CC(C)Oc1ccc2[nH]nc(-c3cc(N4CC(F)(F)C4)ncn3)c2c1 [Example J18] | 24.3 nM
18 | CCc1nnc2n1CCN(c1cc(-c3n[nH]c4ccc(OC(C)C)cc34)ncn1)C2 [Example J19] | 8.6 nM
19 | CC(C)Oc1ccc2[nH]nc(-c3cc(N4CCc5nc(C6CC6)oc5C4)ncn3)c2c1 [Example J20] | 43 nM
20 | CC(C)Oc1ccc2[nH]nc(-c3cc(N4CCN(c5nnc(C6CC6)o5)CC4)ncn3)c2c1 [Example J21] | 14 nM
21 | Cc1noc(C2CN(c3cc(-c4n[nH]c5ccc(OC(C)C)cc45)ncn3)C2)n1 [Example J22] | 9.3 nM
22 | CC(C)Oc1ccc2[nH]nc(-c3cc(N4CC(n5cnnc5)C4)ncn3)c2c1 [Example J23] | 20.1 nM
23 | CC(C)Oc1ccc2[nH]nc(-c3cc(N4CCN(c5ccncn5)CC4)ncn3)c2c1 [Example J24] | 15.8 nM
24 | CC(C)Oc1ccc2[nH]nc(-c3cc(N4CC[C@@H](F)C4)ncn3)c2c1 [Example J25] | 8.7 nM

Row | Structure (SMILES) | IC50
25 | CC(C)Oc1ccc2[nH]nc(-c3cc(N4CC[C@H](F)C4)ncn3)c2c1 [Example J26] | 9.5 nM
26 | CC(C)NC(=O)CN1CCN(c2cc(-c3n[nH]c4ccc(OC(C)C)cc34)ncn2)CC1 [Example K1] | 5.1 nM
27 | CC(C)Oc1ccc2[nH]nc(-c3cc(N4CCN(C(=O)c5ccco5)CC4)ncn3)c2c1 [Example K2] | 8.7 nM
28 | CCN1CCN(c2cc(-c3n[nH]c4ccc(OC(C)C)cc34)ncn2)CC1 [Example K3] | 6 nM
29 | COC1CCCN(c2cc(-c3n[nH]c4ccc(OC(C)C)cc34)ncn2)C1 (centres unmarked) [Example K4] | 12.7 nM
30 | CC(=O)N1CCN(c2cc(-c3n[nH]c4ccc(OC(C)C)cc34)ncn2)CC1 [Example K5] | 11.2 nM
31 | CC(C)Oc1ccc2[nH]nc(-c3cc(N4CCN(C(=O)C5CCCO5)CC4)ncn3)c2c1 (centres unmarked) [Example K6] | 58.1 nM
32 | CC(C)Oc1ccc2[nH]nc(-c3cc(N4CCN(c5ncccn5)CC4)ncn3)c2c1 [Example K7] | 11.8 nM
33 | CC(C)Oc1ccc2[nH]nc(-c3cc(N4CCC(C#N)CC4)ncn3)c2c1 [Example K8] | 7.2 nM
34 | COC(=O)N1CCN(c2cc(-c3n[nH]c4ccc(OC(C)C)cc34)ncn2)CC1 [Example K9] | 10.2 nM
35 | CC(C)Oc1ccc2[nH]nc(-c3cc(N4CCC(n5ccnc5)C4)ncn3)c2c1 (centres unmarked) [Example K11] | 11.3 nM
36 | CC(C)Oc1ccc2[nH]nc(-c3cc(N4CCC(O)(C(F)(F)F)CC4)ncn3)c2c1 [Example K12] | 10.5 nM
37 | CC(C)Oc1ccc2[nH]nc(-c3cc(N4CCCC(C(C)(C)O)C4)ncn3)c2c1 (centres unmarked) [Example K13] | 6.9 nM
38 | CC(C)Oc1ccc2[nH]nc(-c3cc(N4CCC(n5cccn5)CC4)ncn3)c2c1 [Example K14] | 15.3 nM
39 | CC(C)Oc1ccc2[nH]nc(-c3cc(N4CCC(CF)C4)ncn3)c2c1 (centres unmarked) [Example K15] | 6.9 nM
40 | CC(C)Oc1ccc2[nH]nc(-c3cc(N4CCN(Cc5ccncc5)CC4)ncn3)c2c1 [Example K16] | 8.2 nM
41 | CC(C)Oc1ccc2[nH]nc(-c3cc(N4CCN(c5cnn(C)c5)CC4)ncn3)c2c1 [Example K17] | 5.4 nM
42 | CC(C)Oc1ccc2[nH]nc(-c3cc(N4CCC(C(C)(C)O)CC4)ncn3)c2c1 [Example K18] | 5.4 nM
43 | CC(C)Oc1ccc2[nH]nc(-c3cc(N4CCn5nc(C6CC6)nc5C4)ncn3)c2c1 [Example K19] | 18.2 nM
44 | CC(C)Oc1ccc2[nH]nc(-c3cc(N4CCC(F)(CO)CC4)ncn3)c2c1 [Example K20] | 6.3 nM
45 | CC(C)Oc1ccc2[nH]nc(-c3cc(N4CCN(c5nncs5)CC4)ncn3)c2c1 [Example K21] | 17 nM
46 | Cn1cc(-c2cc3c(-c4cc(N5CCn6ncnc6C5)ncn4)n[nH]c3cc2F)cn1 [Example L1] | 63.9 nM
47 | Cn1cc(-c2cc3c(-c4cc(N5CC[C@H](CF)C5)ncn4)n[nH]c3cc2F)cn1 [Example L2] | 13.6 nM
48 | Cn1cc(-c2cc3c(-c4cc(N5CCCC(F)(F)C5)ncn4)n[nH]c3cc2F)cn1 [Example L3] | 23.4 nM

Row | Structure (SMILES) | IC50
49 | Cn1cc(-c2cc3c(-c4cc(N5CC[C@@H](CO)C5)ncn4)n[nH]c3cc2F)cn1 [Example L4] | 36.8 nM
50 | Cn1cc(-c2cc3c(-c4cc(N5CC[C@H](CO)C5)ncn4)n[nH]c3cc2F)cn1 [Example L5] | 37 nM
51 | Cn1cc(-c2cc3c(-c4cc(N5CCC(F)(F)C5)ncn4)n[nH]c3cc2F)cn1 [Example L6] | 70.9 nM
52 | Cn1cc(-c2cc3c(-c4cc(N5CCCC(C)(O)C5)ncn4)n[nH]c3cc2F)cn1 (centres unmarked) [Example L7] | 67.5 nM
53 | Cn1cc(-c2cc3c(-c4cc(N5CC[S+]([O-])CC5)ncn4)n[nH]c3cc2F)cn1 [Example L8] | 131 nM
54 | CN1CCN(c2cc(-c3n[nH]c4cc(F)c(-c5cnn(C)c5)cc34)ncn2)CC1=O [Example L9] | 37.7 nM
55 | Cn1cc(-c2cc3c(-c4cc(N5CCc6oncc6C5)ncn4)n[nH]c3cc2F)cn1 [Example L10] | 453 nM
56 | Cn1cc(-c2cc3c(-c4cc(N5CCN(C6CC6)CC5)ncn4)n[nH]c3cc2F)cn1 [Example L11] | 17.7 nM
57 | C[C@H]1CN(c2cc(-c3n[nH]c4cc(F)c(-c5cnn(C)c5)cc34)ncn2)CCO1 [Example L12] | 26.5 nM
58 | C[C@@H]1CN(c2cc(-c3n[nH]c4cc(F)c(-c5cnn(C)c5)cc34)ncn2)CCO1 [Example L13] | 20.5 nM
59 | Cn1cc(-c2cc3c(-c4cc(N5C[C@@H](F)[C@H](F)C5)ncn4)n[nH]c3cc2F)cn1 [Example L14] | 29.9 nM
60 | Cn1cc(-c2cc3c(-c4cc(N5CCCC6(CCO6)C5)ncn4)n[nH]c3cc2F)cn1 (centres unmarked) [Example L15] | 398 nM
61 | Cn1cc(-c2cc3c(-c4cc(N5CCC(n6cccn6)C5)ncn4)n[nH]c3cc2F)cn1 (centres unmarked) [Example L16] | 73.5 nM
62 | Cc1nc2c(o1)CCN(c1cc(-c3n[nH]c4cc(F)c(-c5cnn(C)c5)cc34)ncn1)C2 [Example L17] | 53.4 nM
63 | Cn1cc(-c2cc3c(-c4cc(N5CCN6C(=O)OCC6C5)ncn4)n[nH]c3cc2F)cn1 (centres unmarked) [Example L18] | 64.2 nM
64 | Cn1cc(-c2cc3c(-c4cc(N5CCC(F)(C#N)CC5)ncn4)n[nH]c3cc2F)cn1 [Example L19] | 39.4 nM
65 | CO[C@@H]1CN(c2cc(-c3n[nH]c4cc(F)c(-c5cnn(C)c5)cc34)ncn2)C[C@H]1O [Example L20] | 36.2 nM
66 | CN(C)[C@@H]1CN(c2cc(-c3n[nH]c4cc(F)c(-c5cnn(C)c5)cc34)ncn2)C[C@H]1O [Example L21] | 67.1 nM
67 | Cn1cc(-c2cc3c(-c4cc(N5CCS(=O)(=O)CC5)ncn4)n[nH]c3cc2F)cn1 [Example L22] | 146 nM
68 | Cn1cc(-c2cc3c(-c4cc(N5CCC(F)(CO)CC5)ncn4)n[nH]c3cc2F)cn1 [Example L23] | 15.3 nM
69 | CN(C)[C@@H]1CCN(c2cc(-c3n[nH]c4cc(F)c(-c5cnn(C)c5)cc34)ncn2)C1 [Example L24] | 58 nM
70 | Cn1cc(-c2cc3c(-c4cc(N5CCN(CCCO)CC5)ncn4)n[nH]c3cc2F)cn1 [Example L25] | 12.6 nM
71 | Cn1cc(-c2cc3c(-c4cc(N5CCc6nccnc6C5)ncn4)n[nH]c3cc2F)cn1 [Example L26] | 11.1 nM
